Test results from patent US12220467B2, “Highly loaded metal oxide materials by self-assembly for extended biologically active molecule release in medical and dental applications” (MESOSIL INC., priority 2016, dated 2025).
≈ marks a conversion by molar mass, not a printed value. Where a name gives a salt, the structure may show the parent alone. Read-outs that look alike come from different tables or passages of the source.

Legend:
S. aureus = conditions: cited from earlier work
murine fibroblasts = conditions: cited from earlier work
[1] = system: murine fibroblasts and test microorganisms (Escherichia coli and Staphylococcus aureus); conditions: cited from earlier work
mammalian cell = conditions: cited from earlier work
[2] = system: murine fibroblasts and test microorganisms (Escherichia coli and Staphylococcus aureus)
Text: The term “biocompatibility index” is defined by the active agent's effective biological activity and its cytotoxic effect on human or animal cells. […] The biocompatibility index will take into account both the results of the in vitro cytotoxicity, i.e., the concentration at which 50% of the murine fibroblasts are damaged, and the microbial effect, i.e., the concentration at which the baseline burden of the test microorganisms (e.g., Escherichia coli and Staphylococcus aureus) is reduced by at least 3 log 10 (99.9%). A biocompatibility index greater than 1 represent an antibacterial substance with an effective microbicidal activity combined with a relatively low cytotoxicity. […] A biocompatibility index less than 1 indicates an antimicrobial agent with a relatively high cytotoxicity in a defined medium.

[3] = literature values; cited from earlier work
E. coli = conditions: cited from earlier work
human keratinocyte = conditions: cited from earlier work
S. mutans = experiment: Antimicrobial studies against S. mutans; format: cell-based
Text: According to an embodiment, the amphiphilic biologically active agent may be a synthetic, natural or derived compound having properties for treating or preventing a disease or illness, including: pharmaceutical drugs, pharmaceutical conjugated drugs, pharmaceutical prodrugs, antimicrobial or antiseptic agents, antifungal agents, peptides, DNA or any combinations thereof, which when introduced into the body causes a desired biological response. According to another embodiment, the amphiphilic biologically active agent may be an active agent with a suitable biocompatibility index. Such biologically active agent may have a biocompatibility index greater than 1. According to another embodiment, the preferred amphiphilic biologically active agent may be an antibacterial agent. According to a further embodiment, the most preferred amphiphilic biologically active agent may be the antibacterial agent OCT. OCT is an amphiphilic antiseptic agent with a biocompatibility index of greater than 1. OCT has shown a broad range of efficacy against gram positive and negative bacteria and is used currently as a mouth rinse, wound cleansing agent, topical antiseptic, and for other applications. The CMC of OCT was determined to be 3.79 mM.

In the case of `CCCCCCCCCCCCCCCC[N+](C)(C)C.[Br-]` [CTAB, cetyltrimethylammonium bromide], the “minimum inhibitory concentration (MIC) against S. aureus” value (S. aureus) is listed as 16 µg/mL, the “concentration for 50% reduction in murine fibroblasts” value (murine fibroblasts) is listed as 2 µg/mL and the biocompatibility index [1] is listed as “less than 1”. For the same compound, the “concentration able to reduce mammalian cell viability” value (mammalian cell) was “less than 1 μM”.

For `CCCCCCCCCCCC(=O)N[C@@H](CCCN=C(N)N)C(=O)OCC` [LAE, lauric arginate], the biocompatibility index [2] is given as 5.33, the CMC [3] is given as 4.9 mM and the “MIC against E. coli” value (E. coli) is given as 11.8 µg/mL (≈ 30.7 µM). For the same compound, the “concentration for 50% reduction of human keratinocyte growth” value (human keratinocyte) was 63 µg/mL.

For `CCCCCCCCN=c1ccn(CCCCCCCCCCn2ccc(=NCCCCCCCC)cc2)cc1` [OCT, octenidine dihydrochloride], the “antimicrobial activity compared with CHX” value (S. mutans) was “compared favorably with CHX”.

For benzalkonium chloride, the biocompatibility index [1] is listed as 0.79.

In the case of polyhexamethylene biguanide [PHMB], the CMC [3] is listed as 20 to 50 mM and the biocompatibility index ([1]; reported in literature) is listed as 1.36.
